Laboratory results as given in patent US20090270278A1, “Methods and compounds for making arrays” (AMBERGEN, Inc., priority 2007, published 2009).

Target: T1, protein kinase Cα (PKCα) (Homo sapiens, UniProt P17252)
T1 construct: isolate and photo-release endogenous PKCa from the undiluted detergent fractionated HeLa cell extracts; endogenous in cells; host or cells: HeLa cells (ATCC)
Test: PMA-mediated PKCα sub-cellular translocation, measured by kinase activity after isolation with photocleavable antibodies
Format: cell-based
Details: cultured HeLa cells stimulated with 200 nM PMA for 5 min, detergent-fractionated, based on kinase activity, n=4
Description: FIG. 20. Phorbol ester (PMA) mediated protein kinase Cα (PKCα) sub-cellular translocation as measured by functional activity following isolation with photocleavable antibodies. Cultured HeLa cells were stimulated with 200 nM PMA for 5 min and detergent fractionated into the cytosol and membrane compartments prior to isolation and purification with the photocleavable antibodies.
Cultured HeLa cells (ATCC; Manassas, Va.) were stimulated for 5 min with 200 nM Phorbol-12-Myristate-13-Acetate (PMA; EMD Biosciences, Inc., San Diego, Calif.) and subsequently detergent fractionated into sub-cellular compartments according to reported procedures [Ramsby et al. (1994) Electrophoresis 15, 265-277; Ramsby & Makowski. (1999) Methods Mol Biol 112, 53-66; Chiang et al. (2000) J Biochem Biophys Methods 46, 53-68]. PMA is a potent activator of PKCα and is well known to cause translocation of the kinase from the cytosolic to the membrane sub-cellular compartments [Ross & Joyner. (1997) Endothelium 5, 321-332; Bazan & Rapoport. (1996) JPharmacol Toxicol Methods 36, 87-95; Yazlovitskaya & Melnykovych. (1995) Cancer Lett 88, 179-183]. […]

SMILES: CCCCCCCCCCCCCC(=O)O[C@@H]1[C@@H](C)[C@@]2(O)[C@@H](C=C(CO)C[C@]3(O)C(=O)C(C)=C[C@@H]23)[C@@H]2C(C)(C)[C@]12OC(C)=O [PMA, Phorbol-12-Myristate-13-Acetate]
- relative sub-cellular distribution of PKCα, membrane (baseline 21±2% membrane): 84±3%
- relative sub-cellular distribution of PKCα, cytosol (baseline 79±7% cytosol): 16±4%
